We go through 17 compounds from ChEMBL document CHEMBL6087416, “Discovery of novel fused-heterocycle-bearing diarypyrimidine derivatives as HIV-1 potent NNRTIs targeting tolerant region I for enhanced antiviral activity and resistance profile” (Eur J Med Chem, 2025).

For orientation: EC50 means the concentration at which the effect is half-maximal. The IC50 is the concentration that inhibits the measured activity by half. For orientation: CC50 means the concentration giving 50% cytotoxicity.

Structures are written as SMILES.

The subject of data set [1] is Human immunodeficiency virus 1. In words: Antiviral activity against NNRTI-resistant HIV-1 harboring RT K103N mutant infected in human MT4 cells assessed as protection against virus-induced cytopathic effect incubated for 5 days by MTT assay. Format: functional, organism-based. The note with it: Human immunodeficiency virus 1, MT4, 120 h. Background: Cytopathic effects are the visible damage that an infection or toxin causes in cultured cells.

Data set [2] deals with Human immunodeficiency virus 1. Description: Antiviral activity against NNRTI-resistant HIV-1 harboring RT L100I mutant infected in human MT4 cells assessed as protection against virus-induced cytopathic effect incubated for 5 days by MTT assay. The note with it: Human immunodeficiency virus 1, MT4, 120 h. Format: functional, organism-based.
The subject of data set [3] is Human immunodeficiency virus 1. Format: functional, organism-based. The note with it: Human immunodeficiency virus 1, RES056, MT4, 120 h.
Data set [4] in a line: in vitro. The note with it: human, MT4 cells.
Description: Selectivity index, ratio of CC50 for human MT4 cells to EC50 for wild type HIV-1 IIIB infected in human MT4 cells
Data set [5] has as its target Human immunodeficiency virus type 1 reverse transcriptase (Human immunodeficiency virus 1, UniProt Q72547). In words: Inhibition of wild type HIV-1 Reverse transcriptase incubated for 1 hrs by ELISA analysis. In general terms: In an ELISA, binding on a coated surface is turned into a signal by an enzyme label.
Data set [6] in a line: in vitro. The note with it: human, MT4 cells. This is another data set of the same source.
Description: Selectivity index, ratio of CC50 for human MT4 cells to EC50 for HIV-1 RES056 harboring RT K103N/Y181C mutant infected in human MT4 cells
Data set [7] has as its system Human immunodeficiency virus 1. Format: functional, organism-based. The note with it: Human immunodeficiency virus 1, MT4, 120 h.
A short description of data set [8]: Cytotoxicity against human MT4 cells assessed as reduction in cell viability measured after 5 days by MTT assay. Format: toxicity, cell-based. The note with it: time 5 day.
Data set [9] deals with Human immunodeficiency virus 1. In words: Antiviral activity against NNRTI-resistant HIV-1 harboring RT E138K mutant infected in human MT4 cells assessed as protection against virus-induced cytopathic effect incubated for 5 days by MTT assay. Format: functional, organism-based. The note with it: Human immunodeficiency virus 1, MT4, 120 h.
The subject of data set [10] is Human immunodeficiency virus 1. Format: functional, organism-based. The note with it: Human immunodeficiency virus 1, MT4, 120 h. The source holds these as a separate data set.
Data set [11] relates to Human immunodeficiency virus 1. In words: microbe, parasite or virus in culture. The note with it: Human immunodeficiency virus 1, IIIB, MT4, 120 h.
Description: Antiviral activity against wild type HIV-1 IIIB infected in human MT4 cells assessed as protection against virus-induced cytopathic effect incubated for 5 days by MTT assay
Data set [12] has as its system Human immunodeficiency virus 1. Format: functional, organism-based. The note with it: Human immunodeficiency virus 1, MT4, 120 h. The source holds these as a separate data set.
Data set [13] relates to Human immunodeficiency virus 2. Description: Antiviral activity against HIV-2 ROD infected in human MT4 cells assessed as protection against virus-induced cytopathic effect incubated for 5 days by MTT assay. Format: functional, organism-based. The note with it: Human immunodeficiency virus 2, ROD, MT4, 120 h.
The nature of data set [14]: in vitro. The note with it: human, MT4 cells. This is another data set of the same source.
Description: Selectivity index, ratio of CC50 for human MT4 cells to EC50 for HIV-2 ROD infected in human MT4 cells

In the case of `Cc1cc(/C=C/C#N)cc(C)c1Oc1ccnc(Nc2ccc3c(c2)COC3)n1`, the EC50 in data set [1] was found to be 6 nM; in [2], 47 nM; in data set [3], 1080 nM; in data set [7], 99 nM; in data set [9], 39 nM; in data set [10], 4900 nM. For the same compound, the results for the EC50 in data set [11], in data set [12] and in data set [13] were 2 nM, 700 nM and above 14000 nM, respectively. Further, the selectivity ratio in data set [4] was 7440; in data set [6] it was 573. The IC50 in data set [5] came to 29 nM. Also, the CC50 at 120 h in data set [8] worked out at 14000 nM.

As to `Cc1cc(/C=C/C#N)cc(C)c1Oc1ccnc(Nc2ccc3scnc3c2)n1`, the EC50 in [1] turned out to be 6 nM; in data set [2], 29 nM; in data set [3], 950 nM; in data set [7], 68 nM; in [9], 17 nM; in data set [10], 1370 nM. Further, the values for the EC50 in data set [11], in data set [12] and in data set [13] were 2 nM, 1230 nM and 7040 nM, respectively. Further, the selectivity ratio came to 26700 in data set [4], 506 in data set [6] and 7.13 in [14]. This compound yielded an IC50 in data set [5] of 43 nM. In data set [8], the 50% cytotoxic concentration (CC50) at 120 h is 50200 nM.

As to `Cc1cc(/C=C/C#N)cc(C)c1Oc1ccnc(Nc2ccc3nsnc3c2)n1`, the figures for the EC50 in [3], in data set [11] and in [13] were 560 nM, 7 nM and 1260 nM, respectively. Also, the figures for the selectivity ratio in data set [4], in data set [6] and in [14] were 2850, 37 and 16.4, respectively. The compound further gave an IC50 in [5] of 37 nM. Also, the CC50 at 120 h in [8] was 20600 nM.

In the case of `Cc1cc(/C=C/C#N)cc(C)c1Oc1ccnc(Nc2ccc3nccn3c2)n1`, the EC50 in [1] is 8 nM; in data set [2], 64 nM; in data set [3], 1450 nM; in [7], 210 nM; in [9], 58 nM; in [10], 3910 nM. Further, the EC50 in data set [11] is 2 nM; in data set [12], 960 nM; in [13] it was above 28700 nM. Further, the selectivity ratio was determined as 14600 in data set [4] and 20 in data set [6]. It took 29 nM to reach half-maximal inhibition in data set [5] (IC50). The CC50 at 120 h in [8] was 28700 nM.

For `Cc1cc(/C=C/C#N)cc(C)c1Oc1ccnc(Nc2ccc3c(c2)OCO3)n1`, the EC50 in data set [3] is 2220 nM; in data set [11], 8 nM; in [13], 8200 nM. For the same compound, the selectivity ratio in data set [4] is 5260; in data set [6] it was 18; in data set [14], 4.98. In data set [5], this compound registered an IC50 of 26 nM. Also, the CC50 at 120 h in data set [8] was determined as 40800 nM.

With `Cc1cc(/C=C/C#N)cc(C)c1Oc1ccnc(Nc2ccc3c(c2)NC(=O)C3)n1`, the EC50 in [1] is 4 nM; in data set [2], 54 nM; in data set [3], 33700 nM; in [7], 72 nM; in [9], 46 nM; in [10], above 50300 nM. Besides, the EC50 is 2 nM in data set [11], 14400 nM in data set [12] and above 50300 nM in data set [13]. The values for the selectivity ratio in data set [4] and in data set [6] were above 27600 and above 1, respectively. The IC50 in data set [5] is 53 nM. For the same compound, in data set [8], the 50% cytotoxic concentration (CC50) at 120 h is above 50300 nM.

With `Cc1cc(/C=C/C#N)cc(C)c1Oc1ccnc(Nc2ccc3c(c2)C(=O)N(C)C3=O)n1`, the values for the EC50 in data set [3], in [11] and in data set [13] were 4670 nM, 6 nM and 165000 nM, respectively. For the same compound, the selectivity ratio in [4] was above 52500; in data set [6] it was above 63; in data set [14], above 1.78. The compound further came in with an IC50 in [5] of 54 nM. In addition, the CC50 at 120 h in [8] is above 294000 nM.

Consider `Cc1cc(/C=C/C#N)cc(C)c1Oc1ccnc(Nc2ccc(N3CCN(S(C)(=O)=O)CC3)c(C#N)c2)n1`, for which the EC50 was 2 nM in [1]; 4 nM in data set [2]; 93 nM in [3]; 6 nM in data set [7]; 6 nM in data set [9]; 740 nM in [10]. For the same compound, the 50% effective concentration (EC50) is 1 nM in [11], 10 nM in [12] and above 10200 nM in [13]. Further, the selectivity ratio in data set [4] was found to be 7170; in data set [6] it was 110. In data set [8], the CC50 at 120 h was 10200 nM.

In the case of `Cc1cc(/C=C/C#N)cc(C)c1Oc1ccnc(Nc2ccc3c(c2)C(=O)NCC3)n1`, the EC50 in data set [1] is 11 nM; in [2], 14 nM; in [3], 1340 nM; in data set [7], 44 nM; in data set [9], 21 nM; in data set [10], above 3190 nM. The EC50 in data set [11] is 3 nM; in data set [12], above 3190 nM; in [13], above 3190 nM. The selectivity ratio in [4] is 1220; in data set [6] it was 2. This compound returned an IC50 in data set [5] of 46 nM. In addition, the CC50 at 120 h in [8] was 3190 nM.

Take `Cc1cc(/C=C/C#N)cc(C)c1Oc1ccnc(Nc2ccc3c(cnn3C)c2)n1`: the EC50 is 18 nM in [1]; 92 nM in data set [2]; above 50400 nM in data set [3]; 180 nM in data set [7]; 54 nM in data set [9]; above 50400 nM in data set [10]. In addition, the results for the EC50 in data set [11], in [12] and in data set [13] were 3 nM, above 50400 nM and above 50400 nM, respectively. In addition, in data set [4], the selectivity ratio is above 18200. The same compound had an IC50 in data set [5] of 45 nM. In addition, the CC50 at 120 h in data set [8] is above 50400 nM.

As to `Cc1cc(/C=C/C#N)cc(C)c1Oc1ccnc(Nc2ccc3cnsc3c2)n1`, the concentration giving a half-maximal response (EC50) in data set [1] was 4 nM; in [2] it was 14 nM; in data set [3], 450 nM; in [7], 48 nM; in data set [9] it was 14 nM; in data set [10] it was 990 nM. Also, the EC50 in data set [11] was 2 nM; in [12], 500 nM; in [13] it was above 10100 nM. Moreover, the selectivity ratio was 4140 in data set [4] and 22 in data set [6]. Further, the IC50 in data set [5] was 19 nM. In addition, the CC50 at 120 h in [8] is 10100 nM.

As for `Cc1cc(/C=C/C#N)cc(C)c1Oc1ccnc(Nc2ccc3occc3c2)n1`, the EC50 in data set [3] is 8590 nM; in [11], 7 nM; in data set [13] it was 45500 nM. The values for the selectivity ratio in data set [4], in [6] and in data set [14] were 31100, 25 and 4.74, respectively. The same compound yielded an IC50 in data set [5] of 55 nM. In addition, in data set [8], the CC50 at 120 h was 216000 nM.

In the case of `Cn1c(Cn2ccc(C(F)(F)F)c(Oc3cc(Cl)cc(C#N)c3)c2=O)n[nH]c1=O` [DORAVIRINE], the EC50 in [1] came to 10 nM; in [2], 8 nM; in data set [3], 50 nM; in data set [7], 17 nM; in data set [9], 19 nM; in data set [10] it was 1710 nM. The EC50 was 7 nM in data set [11], 22100 nM in data set [12] and above 47000 nM in [13]. Moreover, the results for the selectivity ratio in data set [4] and in data set [6] were above 6760 and above 931, respectively. In [5], this compound returned an IC50 of 30 nM. The cytotoxic concentration (CC50) at 120 h in [8] is above 47000 nM.

With `O=C1Nc2ccc(Cl)cc2[C@@](C#CC2CC2)(C(F)(F)F)O1` [EFAVIRENZ], the 50% effective concentration (EC50) in data set [7] was 9 nM; in data set [9] it was 9 nM; in data set [13], above 6340 nM. In addition, the CC50 at 120 h in data set [8] is above 6340 nM.

Turning to `Cc1cc(C#N)cc(C)c1Oc1nc(Nc2ccc(C#N)cc2)nc(N)c1Br` [ETRAVIRINE], the EC50 in data set [3] was 32 nM; in data set [10] it was 31 nM; in data set [12], 17 nM; in [13] it was above 4590 nM. In data set [8], the CC50 at 120 h was above 4590 nM.

Consider `Cc1ccnc2c1NC(=O)c1cccnc1N2C1CC1` [NEVIRAPINE], for which the EC50 in data set [1] was 5220 nM; in data set [3], above 9510 nM; in data set [7], 5830 nM; in data set [10] it was above 9510 nM; in data set [11] it was 130 nM; in data set [12], above 9510 nM. Moreover, in data set [13], the EC50 is above 9510 nM. In addition, the CC50 at 120 h in data set [8] is above 9510 nM.

With `Cc1cn([C@H]2C[C@H](N=[N+]=[N-])[C@@H](CO)O2)c(=O)[nH]c1=O` [ZIDOVUDINE], the EC50 in data set [1] is 36 nM; in data set [2], 14 nM; in [3], 35 nM; in data set [7] it was 41 nM; in data set [9], 47 nM; in [10] it was 40 nM. For the same compound, the EC50 is 40 nM in data set [11] and 39 nM in data set [13]. Also, the results for the selectivity ratio in data set [4], in [6] and in data set [14] were above 186, above 215 and above 192, respectively. The CC50 at 120 h in [8] is above 7480 nM.
